Laboratory results published in patent publication US12281112B2, “Compounds for inhibiting NLRP3 and uses thereof” (Ventus Therapeutics U.S., Inc., priority 2021, dated 2025).

Assays:
NLRP3 [1] = molecular target: T1, NLRP3 (Homo sapiens, UniProt Q96P20); experiment: Human PBMC NLRP3 Assay; assay type: cell-based
Experimental: Human PBMC NLRP3 Assay: Cryopreserved PBMCs were rapidly thawed in a 37° C. water bath for 2 min. […] A count was undertaken using a hemocytometer and adjusted to 2.5×10^5 cells/mL. V-shaped 96-well plates were seeded with 200 μL of PMBCs (5×10^4) per well and subsequently incubated overnight at 37° C. with 5% CO2. Assay Media was then prepared containing 100 ng/ml of LPS. PBMCs were then centrifuged at 1,200 RPM for 5 min, serum containing media was aspirated, and 150 μL/well of Assay Media+LPS was immediately added. Assay Media without LPS was added in the untreated control wells. Cells were then primed with LPS for 4 h at 37° C. with 5% CO2. A concentration response curve (CRC) was prepared of 1000× test compound in 100% DMSO. The CRC was then diluted 1:50 in Assay Media and then further diluted by 1:5× in Assay Media resulting in a final 4×CRC in 0.4% DMSO/Assay Media. 50 μL/well of 4× test compound CRC or vehicle (0.4% DMSO/Assay Media) was then transferred into each well and subsequently incubated for 30 min at 37° C. with 5% CO2. Cells were stimulated by adding 4 μL of 250 mM ATP, using a 250 mM stock prepared in 1 M Hepes without further dilution (for a final concentration of 5 mM), for 1 h at 37° C. with 5% CO2. Plates were then centrifuged at 1200 RPM for 5 min; and 50 μl of the media was transferred to a clean 96-well storage plate for cytokine measurements using the mesoscale platform, and stored at −80° C. until analyzed.

NLRP3 [2] = molecular target: T1, NLRP3; experiment: Human whole blood (hWB) NLRP3 Assay; assay type: cell-based; parameters: Blood is collected from healthy volunteers in heparin lithium tubes; from tissue; host or cells: pooled heparinised whole blood from healthy human volunteers, LPS-primed, ATP-stimulated
Experimental: Blood is collected from healthy volunteers in heparin lithium tubes. • 2. Plate 90 μL of pooled blood per well in 96-well U-bottom plates. • 3. Add 5 uL of 20×LPS (20 ug/mL, final concentration of 1 ug/mL) and mix by gentle pipetting. • 4. Incubate in TC incubator for 4.5 hours. • 5. Add 5 uL of 20× compound or vehicle per well and mix by gentle pipetting. • a. Compounds are diluted 1/50 in HBSS to prepare a 20× dilution curve in 2% DMSO • 6. Incubate for 30 minutes in TC incubator with shaking (450 rpm). • 7. […] Incubate in TC incubator for 30 minutes with shaking (450 rpm). • 9. Centrifuge plate for 10 minutes at 800×g and carefully remove ˜70 μL of plasma. Freeze plasma if required. • 10. Analyze human IL-1b with IL-1b MSD assay (K151TUK) • a.

[3] = Table 5: fused bicyclic analogs vs monocyclic pyridazines
[4] = human PBMCs primed with LPS 4 h, compound 30 min, ATP 5 mM 1 h, cytokine measurement on mesoscale platform, potency code
[5] = LPS 1 ug/mL 4.5 h, compound 30 min, ATP 5 mM 30 min, IL-1b MSD assay, potency code
[6] = Table 6: regioisomer comparison

T1 sequence (Q96P20 whole entry): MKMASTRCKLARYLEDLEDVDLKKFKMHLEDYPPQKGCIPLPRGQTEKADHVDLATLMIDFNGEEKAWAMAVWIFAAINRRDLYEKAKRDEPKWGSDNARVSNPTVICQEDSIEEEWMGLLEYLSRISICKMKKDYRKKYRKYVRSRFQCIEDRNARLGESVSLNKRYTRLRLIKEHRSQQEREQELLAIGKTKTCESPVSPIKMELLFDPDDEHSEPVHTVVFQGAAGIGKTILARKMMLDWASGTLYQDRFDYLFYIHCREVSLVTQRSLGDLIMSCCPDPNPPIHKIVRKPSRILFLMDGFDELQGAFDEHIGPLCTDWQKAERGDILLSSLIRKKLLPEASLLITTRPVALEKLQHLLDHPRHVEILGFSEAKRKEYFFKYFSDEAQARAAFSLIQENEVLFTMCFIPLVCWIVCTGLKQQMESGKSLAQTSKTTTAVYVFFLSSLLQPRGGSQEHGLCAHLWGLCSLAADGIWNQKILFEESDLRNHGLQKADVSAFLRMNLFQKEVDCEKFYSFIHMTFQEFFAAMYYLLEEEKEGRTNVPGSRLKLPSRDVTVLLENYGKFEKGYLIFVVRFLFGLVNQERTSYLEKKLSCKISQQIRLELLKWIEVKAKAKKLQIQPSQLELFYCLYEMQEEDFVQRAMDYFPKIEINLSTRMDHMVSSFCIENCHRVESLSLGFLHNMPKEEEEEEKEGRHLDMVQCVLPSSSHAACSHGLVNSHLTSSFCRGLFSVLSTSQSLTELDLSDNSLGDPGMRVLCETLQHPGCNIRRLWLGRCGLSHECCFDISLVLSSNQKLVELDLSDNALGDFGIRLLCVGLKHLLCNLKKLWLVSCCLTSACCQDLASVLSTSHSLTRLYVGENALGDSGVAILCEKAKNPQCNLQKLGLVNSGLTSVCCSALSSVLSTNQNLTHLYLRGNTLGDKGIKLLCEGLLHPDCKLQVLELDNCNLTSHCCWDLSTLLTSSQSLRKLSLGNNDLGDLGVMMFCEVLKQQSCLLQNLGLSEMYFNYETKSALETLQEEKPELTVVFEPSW

| IC50 (NLRP3 [1]; [4]) [nM] | IC50 (NLRP3 [2]; [5]) [nM] | SMILES | further results |
| --- | --- | --- | --- |
| 300 to 500 | < 300 | Clc1ccc(-c2nnc(NC[C@H]3CCCO3)c3cc(Cl)ccc23)cc1 (racemic) [Compound 21, 7-chloro-4-(4-chlorophenyl)-N-[[rac-(2R)-tetrahydrofuran-2-yl]methyl]phthalazin-1-amine] |  |
|  | < 300 | Clc1ccc(-c2nnc(NCC3COCCO3)c3ccccc23)cc1 (single isomer, unassigned) [Compound 24] |  |
|  | < 300 | Clc1ccc(-c2nnc(NC[C@@H]3CCCO3)c3ccncc23)cc1 [Compound 2, (S)-4-(4-chlorophenyl)-N-((tetrahydrofuran-2-yl)methyl)pyrido[3,4-d]pyridazin-1-amine] |  |
| > 1000 | < 300 | CC1(CNc2ccc(-c3ccc(Br)cc3)nn2)CCCO1 (stereo not shown) [Compound 6, 6-(4-bromophenyl)-N-[(2-methyltetrahydrofuran-2-yl)methyl]pyridazin-3-amine] |  |
| < 300 | > 1000 | Brc1ccc(-c2nnc(NCC3CCCO3)c3ccccc23)cc1 (stereo not shown) [Compound 7, 4-(4-bromophenyl)-N-(tetrahydrofuran-2-ylmethyl)phthalazin-1-amine] |  |
| > 1000 | 500 to 1000 | Clc1ccc(-c2nnc(NCC3CCCO3)c3ccncc23)cc1 (stereo not shown) [Compound 15, 4-(4-chlorophenyl)-N-(tetrahydrofuran-2-ylmethyl)pyrido[3,4-d]pyridazin-1-amine] |  |
|  | > 1000 | Clc1ccc(-c2nnc(NCC3CCCCO3)c3ccccc23)cc1 (stereo not shown) [Compound 17, 4-(4-chlorophenyl)-N-(tetrahydropyran-2-ylmethyl)phthalazin-1-amine] |  |
|  | 300 to 500 | CN(CC1CCCO1)c1nnc(-c2ccc(Cl)cc2)c2ccccc12 (stereo not shown) [Compound 19, 4-(4-chlorophenyl)-N-methyl-N-(tetrahydrofuran-2-ylmethyl)phthalazin-1-amine] |  |

The remaining lines, values behind:

| SMILES | IC50 (NLRP3 [1]; [4]) [nM] | IC50 (NLRP3 [2]; [5]) [nM] | further results |
| --- | --- | --- | --- |
| Brc1ccc(-c2ccc(NCC3CCCO3)nn2)cc1 (stereo not shown) |  |  | IC50 (NLRP3 [1]; [3]): 3800 nM |
| Clc1ccc(-c2nnc(NCC3CCCO3)c3ccncc23)cc1 (single isomer, unassigned) |  |  | IC50 (NLRP3 [1]; [6]): 2900 nM |
| Clc1ccc(-c2nnc(NCC3COCCO3)c3ccccc23)cc1 (single isomer, unassigned) [Compound 23] | 500 to 1000 | > 1000 |  |
| Oc1cc(Cl)ccc1-c1nnc(NC[C@H]2CCC(F)(F)C2)c2cnccc12 (single isomer, unassigned) [Compound 91] | < 300 |  |  |
| Clc1ccc(-c2nnc(OC[C@H]3CCCO3)c3cnccc23)cc1 [Compound 3, (R)-1-(4-chlorophenyl)-4-((tetrahydrofuran-2-yl)methoxy)pyrido[3,4-d]pyridazine] |  | 300 to 500 |  |
| Clc1ccc(-c2nnc(OC[C@H]3CCCO3)c3ccncc23)cc1 [Compound 4, (R)-4-(4-chlorophenyl)-1-((tetrahydrofuran-2-yl)methoxy)pyrido[3,4-d]pyridazine] |  | 300 to 500 |  |
| CC1(CNc2nnc(-c3ccc(Cl)cc3)c3ccccc23)CCCO1 (stereo not shown) [Compound 8, 4-(4-chlorophenyl)-N-[(2-methyltetrahydrofuran-2-yl)methyl]phthalazin-1-amine] |  | < 300 |  |
| Clc1ccc(-c2nnc(NCC3CCCOC3)c3ccccc23)cc1 (stereo not shown) [Compound 9, 4-(4-chlorophenyl)-N-(tetrahydropyran-3-ylmethyl)phthalazin-1-amine] |  | 500 to 1000 |  |
| Clc1ccc(-c2nnc(NCC3CCOCC3)c3ccccc23)cc1 [Compound 10, 4-(4-chlorophenyl)-N-(tetrahydropyran-4-ylmethyl)phthalazin-1-amine] |  | > 1000 |  |
| FC(F)(F)c1ccc(-c2nnc(NCC3CCCO3)c3ccccc23)cc1 (stereo not shown) [Compound 11, N-(tetrahydrofuran-2-ylmethyl)-4-[4-(trifluoromethyl)phenyl]phthalazin-1-amine] | < 300 | < 300 |  |
| OCCNc1nnc(-c2ccc(Cl)cc2)c2ccccc12 [Compound 16, 2-[[4-(4-chlorophenyl)phthalazin-1-yl]amino]ethanol] |  | 500 to 1000 |  |
| COCCNc1nnc(-c2ccc(Cl)cc2)c2ccccc12 [Compound 18, 4-(4-chlorophenyl)-N-(2-methoxyethyl)phthalazin-1-amine] |  | < 300 |  |
| Cc1cc(Cl)ccc1-c1nnc(NCC2CCCO2)c2ccccc12 (stereo not shown) [Compound 20, 4-(4-chloro-2-methyl-phenyl)-N-(tetrahydrofuran-2-ylmethyl)phthalazin-1-amine] | 300 to 500 | 300 to 500 |  |
| CC1COC(CNc2nnc(-c3ccc(Cl)cc3)c3ccccc23)C1 (stereo not shown) [Compound 22, 4-(4-chlorophenyl)-N-[(4-methyltetrahydrofuran-2-yl)methyl]phthalazin-1-amine] |  | 500 to 1000 |  |
| CC(C)(O)CNc1nnc(-c2ccc(Cl)cc2O)c2ccncc12 [Compound 82, 5-chloro-2-(4-((2-hydroxy-2-methylpropyl)amino)pyrido[3,4-d]pyridazin-1-yl)phenol] | < 300 |  |  |
| COC(C)(C)CNc1nnc(-c2ccc(Cl)cc2O)c2ccncc12 [Compound 83, 5-chloro-2-(4-((2-methoxy-2-methylpropyl)amino)pyrido[3,4-d]pyridazin-1-yl)phenol] | < 300 |  |  |
| Oc1cc(Cl)ccc1-c1nnc(N[C@H]2CCOC2)c2cnccc12 [Compound 89, (S)-5-chloro-2-(4-((tetrahydrofuran-3-yl)amino)pyrido[3,4-d]pyridazin-1-yl)phenol] | < 300 |  |  |
| CN1CCC[C@H]1CNc1nnc(-c2ccc(Cl)cc2O)c2ccncc12 [Compound 93, (S)-5-chloro-2-(4-(((1-methylpyrrolidin-2-yl)methyl)amino)pyrido[3,4-d]pyridazin-1-yl)phenol] | < 300 |  |  |
| Brc1ccc(-c2nnc(NCC3CCCO3)c3ccccc23)cc1 (stereo not shown) [drawing 168] |  |  | IC50 (NLRP3 [1]; [3]): 190 nM |
| Clc1ccc(-c2ccc(NCC3CCCO3)nn2)cc1 (stereo not shown) [drawing 169] |  |  | IC50 (NLRP3 [1]; [3]): 64000 nM |
| Clc1ccc(-c2ccc(NCC3CCCO3)nn2)cc1 (stereo not shown) [drawing 171] |  |  | IC50 (NLRP3 [1]; [6]): 64000 nM; IC50 (NLRP3 [2]; [6]): > 50000 nM |
